The record followed here is patent US3941800A, “N-benzyltriazole compounds” (Bayer Aktiengesellschaft, priority 1969, dated 1976).

Type in all cases: in vivo
Experiment [1] deals with tomato plants. Description: Growth inhibition/tomato plants. The conditions noted are these: Solanum lycopersicum, 192 h; 500 ppm spray on plants 10 cm high; after 8 days vs untreated control. How it is done: (§1) Solvent: 40 parts by weight acetone
(§2) Emulsifier: 0.25 parts by weight alkylaryl polyglycol ether
To produce a suitable preparation of active compounds, 1 part by weight of active compound was mixed with the stated amount of solvent which contained the stated amount of emulsifier, and the concentrate was diluted with a disodium hydrogen phosphate-potassium dihydrogen phosphate buffer solution (pH 6) to the desired concentration.
Tomato plants of a height of 10 cm were sprayed with a preparation which contained 500 ppm of active compound.
After 8 days, the percentage inhibition of the treated plants compared with the untreated control plant was determined. With 100% inhibition, no growth was present; with 0% inhibition, the growth corresponded to that of the control plant.
The active compounds, concentration of active compound in ppm (=mg/kg) and the results can be seen from the following Table.

In experiment [2] the test system is oat grains. The experiment can be described thus: Growth inhibition/oat grains. The conditions noted are these: 72 h, shoot length after 3 days vs control, dark, 25°C, pH 6. How it is done:
as §1, §2
(§3) To produce a suitable preparation of active compound, 1 part by weight of active compound was mixed with the stated amount of solvent which contained the stated amount of emulsifier, and the concentrate was diluted with a disodium hydrogen phosphate-potassium dihydrogen phosphate buffer solution (pH 6) to the desired concentration.
Batches of 25 oat grains were laid out on two filter papers in a Petri dish. 10 ml. of the preparation of active compound were pipetted into each dish. Germination of the seeds took place in the dark at 25°C.
After 3 days, the length of the shoot was determined and the growth inhibition compared with the control plant was expressed as a percentage. 100% denoted the standstill of growth, and 0% denoted a growth corresponding to that of the untreated plant.
The active compounds, concentrations of the active compounds in ppm (=mg/kg) and the results can be seen from the following Table.

Experiment [3] concerns apple seedlings. The experiment can be described thus: Growth inhibition/apple seedlings. Conditions: 168 h; 500 ppm spray on seedlings about 2 cm high; after 7 days vs untreated control. On the procedure:
as §1, §2, §3
Apple seedlings were, at a height of about 2 cm, sprayed with a preparation which contained 500 ppm of active compound.
After 7 days, the percentage inhibition of the treated plants compared with the untreated control plant was determined. With 100% inhibition, no growth was present; with 0% inhibition, the growth corresponded to that of the control plant.
The active compounds, the concentrations of the active compounds in ppm (=mg/kg) and the results can be seen from the following Table.

Experiment [4] deals with linseed. The experiment can be described thus: Growth inhibition/linseed test. The conditions noted are these: 72 h, root length after 3 days vs control, dark, 25°C, pH 6. On the procedure:
as §1, §2, §3
Batches of 25 linseeds were laid out on two filter papers in a Petri dish. 10 ml. of the preparation of active compound were pipetted into each dish. Germination of the seeds took place in the dark at 25°C.
After 3 days, the length of the roots was determined and the growth inhibition compared with the control plant was expressed as a percentage. 100% denoted the standstill of growth, and 0% denoted a growth corresponding to that of the untreated plant.
The active compounds, the concentrations of the active compounds in ppm (=mg/kg) and results can be seen from the following Table.

Experiment [5] concerns beans (Phaseolus vulgaris). The experiment can be described thus: Growth inhibition/bean plants. Conditions: 500 ppm spray on beans 10 cm high; length after 8 days; water control 26 cm. On the procedure: as §1, §2
To produce a suitable preparation of active compound, 1 part by weight of active compound was mixed with the stated amount of solvent which contained the stated amount of emulsifier, and the concentrate was diluted with a disodium hydrogen phosphate-potassium dihydrogen phosphate buffer solution (pH 6) to the desired concentrations.
Beans (Phaseolus vulgaris) 10 cm high were sprayed with preparations which contained 500 ppm of active compound.
After 8 days, the length of the treated plants compared with the untreated control plant was determined.
The active compounds, concentrations of active compound in ppm (=mg/kg) and the results can be seen from the following Table.

Usually inhibition stands for the share of the control response that was lost under treatment. Higher therefore signals strong suppression. On to `C[N+](C)(C)CCCl` [(2-chloroethyl)-trimethyl-ammonium chloride, reference compound], for which the inhibition at 500 ppm in experiment [1] and in experiment [3] was 25% throughout. In addition, the figures for the inhibition at 50 ppm in experiment [2] and in experiment [4] were 22% and 20%, respectively. For the same compound, the values for the inhibition at 250 ppm in experiment [2] and in experiment [4] were 31% and 30%, respectively.
With `Cc1cc(C(c2ccccc2)(c2ccc(F)cc2)n2cncn2)no1` (stereo not shown) [Compound 1, (4-fluoro-phenyl)-phenyl-(5-methyl-isoxazol-3-yl)-(1,2,4-triazol-1-yl)-methane], the results for the inhibition at 500 ppm in experiment [1] and in experiment [3] were 81% and 50%, respectively. The inhibition at 50 ppm in experiment [2] was determined as 97%; in experiment [4], 85%. Moreover, the inhibition at 250 ppm in experiment [2] and in experiment [4] was 100% throughout. Besides, the “Length in cm with a concentration of active compound of 500 ppm” value (shortened to “Length in cm with a concentration”) in experiment [5] came out at 10.5 cm.
For `Cc1cc(C(c2ccccc2)(c2ccc(Cl)cc2)n2cncn2)no1` (stereo not shown) [Compound 2, (4-chloro-phenyl)-phenyl-(5-methyl-isoxazol-3-yl)-(1,2,4-triazol-1-yl)-methane], at 500 ppm the inhibition in experiment [1] was 88%. In experiment [2], this compound came in with an inhibition at 50 ppm of 55% and an inhibition at 250 ppm of 95%. Also, in experiment [5], the “Length in cm with a concentration” value is reported as 10.0 cm. Moreover, in experiment [4], the inhibition at 50 ppm was 55% and the inhibition at 250 ppm came out at 85%.
The compound `Cc1cccc(C(c2ccccc2)(c2nccn2C)n2cncn2)c1` (stereo not shown) [Compound 3, (3-methyl-phenyl)-phenyl-(1-methyl-imidazol-2-yl)-(1,2,4-triazol-1-yl)-methane] showed an inhibition at 500 ppm in experiment [1] of 60%. In experiment [4], this compound showed an inhibition at 50 ppm of 85% and an inhibition at 250 ppm of 100%.
For the compound `Cc1cc(C(c2ccccc2)(c2ccccc2)n2cncn2)no1` [Compound 4, bis-phenyl-(5-methyl-isoxazol-3-yl)-(1,2,4-triazol-1-yl)-methane], the inhibition at 500 ppm in experiment [1] turned out to be 80%; in experiment [3], 43%. In experiment [2], this compound registered an inhibition at 50 ppm of 65%. This compound also yielded an inhibition at 250 ppm in experiment [2] of 75%.
Consider `Cn1ccnc1C(c1ccccc1)(c1ccc(Cl)cc1)n1cncn1` (stereo not shown) [Compound 6, (4-chloro-phenyl)-phenyl-(1-methyl-imidazol-2-yl)-(1,2,4-triazol-1-yl)-methane], for which, in experiment [2], the inhibition at 50 ppm amounted to 25% and the inhibition at 250 ppm was found to be 70%.
In experiment [2], `Cn1ccnc1C(c1ccccc1)(c1ccc(C(C)(C)C)cc1)n1cncn1` (stereo not shown) [Compound 7, (4-tert.-butyl-phenyl)-phenyl(1-methyl-imidazol-2-yl)-(1,2,4-triazol-1-yl)-methane] displayed an inhibition at 50 ppm of 25% and an inhibition at 250 ppm of 62%.
For `Cn1ccnc1C(c1ccccc1)(c1ccc(-c2ccccc2)cc1)n1cncn1` (stereo not shown) [Compound 8, (4-phenyl-phenyl)-phenyl(1-methyl-imidazol-2-yl)-(1,2,4-triazol-1-yl)-methane], the “Length in cm with a concentration” value in experiment [5] is reported as 11.5 cm.
For `O=c1ccc(=O)[nH][nH]1` [maleic acid hydrazide, reference compound], the inhibition at 500 ppm in experiment [1] amounted to 33%. In experiment [2], this compound gave an inhibition at 50 ppm of 20% and an inhibition at 250 ppm of 40%. The “Length in cm with a concentration” value in experiment [5] was 12 cm. In experiment [4], this compound registered an inhibition at 50 ppm of 36% and an inhibition at 250 ppm of 50%.
As for `CN(C)NC(=O)CCC(=O)O` [succinic acid 2,2-dimethylhydrazide, reference compound], the inhibition at 500 ppm in experiment [1] amounted to 20%; in experiment [3], 23%. The inhibition at 50 ppm in experiment [2] amounted to 22%; in experiment [4], 12%. Also, the inhibition at 250 ppm in experiment [2] was found to be 37%; in experiment [4], 15%.
